# Reference: ChEMBL document CHEMBL6153093, “Aurovertins from a Marine-Derived Penicillium Species and Nonenzymatic Reactions in Their Formation” (J Nat Prod, 2025)
# Activity calls are given as the source filed them. The rule behind the calls is not given here.
# Experiments:
# Nakaseomyces glabratus = test: Antifungal activity against Candida glabrata ATCC 2001 at 0.1 mg/mL incubated for 12 hrs by agar dilution method; type: functional, organism-based
# PC-9 = test: Cytotoxicity against human PC-9 cells incubated for 48 hrs by CCK8 assay; type: functional, cell-based
# A549 = test: Cytotoxicity against human A549 cells incubated for 48 hrs by CCK8 assay; type: functional, cell-based
# Pseudomonas aeruginosa = test: Antibacterial activity against Pseudomonas aeruginosa ATCC 10145 at 0.1 mg/mL incubated for 12 hrs by agar dilution method; type: functional, organism-based
# Candida albicans = test: Antifungal activity against Candida albicans ATCC 10231 at 0.1 mg/mL incubated for 12 hrs by agar dilution method; type: functional, organism-based
# L02 = test: Cytotoxicity against human L02 cells incubated for 48 hrs by CCK8 assay; type: toxicity, cell-based; details: l02, 48 h
# Staphylococcus aureus [1] = test: Antibacterial activity against methicillin-resistant Staphylococcus aureus subsp. aureus ATCC 43300 at 0.1 mg/mL incubated for 12 hrs by agar dilution method; type: functional, organism-based
# Escherichia coli = test: Antibacterial activity against Escherichia coli ATCC 11775 at 0.1 mg/mL incubated for 12 hrs by agar dilution method; type: functional, organism-based
# Staphylococcus aureus [2] = test: Antibacterial activity against Staphylococcus aureus ATCC 6538 at 0.1 mg/mL incubated for 12 hrs by agar dilution method; type: functional, organism-based
# HCT-116 = test: Cytotoxicity against human HCT-116 cells incubated for 48 hrs by CCK8 assay; type: functional, cell-based
SMILES,Activity (Nakaseomyces glabratus),Activity (PC-9),Activity (A549),Activity (Pseudomonas aeruginosa),Activity (Candida albicans),Activity (L02),Activity (Staphylococcus aureus [1]),Activity (Escherichia coli),Activity (Staphylococcus aureus [2]),Activity (HCT-116)
COc1cc(=O)oc(/C=C/C=C/C=C/[C@]2(C)O[C@]3(C)[C@@H](O)[C@@](C)(O[C@@H]3C)[C@H]2O)c1C,inactive,inactive,inactive,inactive,inactive,Non-toxic,inactive,inactive,inactive,–
COc1cc(=O)oc(/C=C/C=C/C=C/[C@]2(C)O[C@]3(C)[C@@H](O)[C@@](C)(O[C@@H]3C)[C@@H]2O)c1C,inactive,inactive,inactive,inactive,inactive,Non-toxic,inactive,inactive,inactive,–
COc1cc(=O)oc(/C=C/C=C/C=C/C(C)=C/[C@]2(C)O[C@H](C)[C@](C)(O)[C@H]2O)c1C,inactive,–,inactive,inactive,inactive,Non-toxic,inactive,inactive,inactive,inactive
COc1cc(=O)oc(/C=C/C=C/C=C\[C@]2(C)O[C@]3(C)[C@@H](O)[C@](C)(O[C@@H]3C)[C@@H]2O)c1C,inactive,inactive,inactive,inactive,inactive,Non-toxic,inactive,inactive,inactive,–
COc1cc(=O)oc(/C=C/C=C/C=C/[C@]2(C)O[C@]3(C)[C@@H](O)[C@@](C)(O[C@@H]3C)C2=O)c1C,inactive,inactive,inactive,inactive,inactive,Non-toxic,inactive,inactive,inactive,–
COc1cc(=O)oc(\C=C/C=C/C=C/[C@]2(C)O[C@]3(C)[C@@H](O)[C@@](C)(O[C@@H]3C)[C@@H]2O)c1C,inactive,inactive,inactive,inactive,inactive,Non-toxic,inactive,inactive,inactive,–
COc1cc(=O)oc(/C=C/C=C/C=C\[C@@]2(C)O[C@]3(C)[C@@H](O)[C@](C)(O[C@@H]3C)[C@@H]2O)c1C,inactive,inactive,inactive,inactive,inactive,Non-toxic,inactive,inactive,inactive,–
COc1cc(=O)oc(\C=C/C=C/C=C/C(C)=C/[C@]2(C)O[C@H](C)[C@](C)(O)[C@H]2O)c1C,inactive,–,inactive,inactive,inactive,Non-toxic,inactive,inactive,inactive,inactive
COc1cc(=O)oc(/C=C/C=C/C=C/[C@@]2(C)O[C@@]3(C)[C@@H](C)O[C@](C)(C2=O)[C@H]3O)c1C,inactive,inactive,inactive,inactive,inactive,Non-toxic,inactive,inactive,inactive,–
COc1cc(=O)oc(/C=C/C=C/C=C/[C@@]2(C)O[C@]3(C)[C@@H](O)[C@@](C)(O[C@@H]3C)C2=O)c1C,inactive,inactive,inactive,inactive,inactive,Non-toxic,inactive,inactive,inactive,–
COc1cc(=O)oc(/C=C/C=C/C=C/[C@@]2(C)O[C@]3(C)[C@@H](O)[C@](C)(O[C@@H]3C)[C@H]2O)c1C,inactive,inactive,inactive,inactive,inactive,Non-toxic,inactive,inactive,inactive,–
COc1cc(=O)oc(/C=C/C=C/C=C/C(C)=C\[C@]2(C)O[C@H](C)[C@](C)(O)[C@H]2O)c1C,inactive,–,inactive,inactive,inactive,Non-toxic,inactive,inactive,inactive,inactive
